2 molecules from ChEMBL document CHEMBL5678818, “Discovery of potent SOS1 inhibitors that block RAS activation via disruption of the RAS-SOS1 interaction” (Proc Natl Acad Sci U S A, 2019) can be followed below.

For experiment [1], the target named is SOS1-KRAS (Homo sapiens, UniProt Q07889). As to the kind of experiment: Inhibition of N-terminal GST-tagged recombinant human KRAS G12C mutant (1 to 169 residues) expressed in Escherichia coli/N-terminal His10-tagged wild-type recombinant human SOS1 catalytic domain (564 to 1049 residues) expressed in Escherichia coli protein-protein interaction preincubated for 2 mins with KRAS followed by SOS1 addition measured after 60 mins in presence of anti-6His-XL665 by HTRF analysis. In general terms: Time-resolved FRET reads energy transfer from a long-lived donor to a nearby acceptor.

Experiment [2] concerns the target Son of sevenless homolog 1 (Homo sapiens, UniProt Q07889). The experiment in a line: Inhibition of N-terminal His10-tagged wild-type recombinant human SOS1 catalytic domain (564 to 1049 residues) expressed in Escherichia coli assessed as reduction in KRAS G12C mutant activation preincubated for 2 mins with KRAS followed by SOS1 addition measured after 20 mins in presence of EDA-GTP-DY-647P1 by HTRF analysis.

Experiment [3] has as its target Phosphatidylinositol 4-kinase beta (Homo sapiens) (UniProt Q9UBF8). As to the kind of experiment: Inhibition of PIK4CB (unknown origin) assessed as residual activity at 100 nM by KINOMEscan analysis relative to control.
For experiment [4], the target named is Mitogen-activated protein kinase kinase kinase 9 (Homo sapiens) (UniProt P80192). The experiment in a line: Inhibition of MLK1 (unknown origin) assessed as residual activity at 100 nM by KINOMEscan analysis relative to control.
Experiment [5] deals with T1, Membrane-associated tyrosine- and threonine-specific cdc2-inhibitory kinase (Homo sapiens) (UniProt Q99640).
T1 sequence (whole entry): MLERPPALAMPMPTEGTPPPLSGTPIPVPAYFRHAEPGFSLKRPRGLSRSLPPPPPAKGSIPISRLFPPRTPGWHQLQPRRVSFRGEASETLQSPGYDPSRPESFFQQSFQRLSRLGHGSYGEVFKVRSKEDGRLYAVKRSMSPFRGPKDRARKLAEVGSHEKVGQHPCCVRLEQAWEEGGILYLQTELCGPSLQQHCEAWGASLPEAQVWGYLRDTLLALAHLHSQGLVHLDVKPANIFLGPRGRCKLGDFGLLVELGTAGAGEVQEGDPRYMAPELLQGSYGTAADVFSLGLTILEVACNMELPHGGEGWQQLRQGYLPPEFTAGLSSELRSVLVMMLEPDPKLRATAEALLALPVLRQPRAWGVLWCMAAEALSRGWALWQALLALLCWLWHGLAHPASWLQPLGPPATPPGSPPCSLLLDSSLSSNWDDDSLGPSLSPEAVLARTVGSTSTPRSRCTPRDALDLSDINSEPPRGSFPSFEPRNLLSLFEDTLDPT
As to the kind of experiment: Inhibition of PKMYT1 (unknown origin) assessed as residual activity at 100 nM by KINOMEscan analysis relative to control.

The subject of experiment [6] is Phosphatidylinositol 4,5-bisphosphate 3-kinase catalytic subunit alpha isoform (Homo sapiens), P42336 [E545K]. The experiment in a line: Inhibition of PIK3CA E545K mutant (unknown origin) assessed as residual activity at 100 nM by KINOMEscan analysis relative to control.
The target in experiment [7] is T2, Ephrin type-B receptor 4 (Homo sapiens) (UniProt P54760).
T2 sequence (whole entry): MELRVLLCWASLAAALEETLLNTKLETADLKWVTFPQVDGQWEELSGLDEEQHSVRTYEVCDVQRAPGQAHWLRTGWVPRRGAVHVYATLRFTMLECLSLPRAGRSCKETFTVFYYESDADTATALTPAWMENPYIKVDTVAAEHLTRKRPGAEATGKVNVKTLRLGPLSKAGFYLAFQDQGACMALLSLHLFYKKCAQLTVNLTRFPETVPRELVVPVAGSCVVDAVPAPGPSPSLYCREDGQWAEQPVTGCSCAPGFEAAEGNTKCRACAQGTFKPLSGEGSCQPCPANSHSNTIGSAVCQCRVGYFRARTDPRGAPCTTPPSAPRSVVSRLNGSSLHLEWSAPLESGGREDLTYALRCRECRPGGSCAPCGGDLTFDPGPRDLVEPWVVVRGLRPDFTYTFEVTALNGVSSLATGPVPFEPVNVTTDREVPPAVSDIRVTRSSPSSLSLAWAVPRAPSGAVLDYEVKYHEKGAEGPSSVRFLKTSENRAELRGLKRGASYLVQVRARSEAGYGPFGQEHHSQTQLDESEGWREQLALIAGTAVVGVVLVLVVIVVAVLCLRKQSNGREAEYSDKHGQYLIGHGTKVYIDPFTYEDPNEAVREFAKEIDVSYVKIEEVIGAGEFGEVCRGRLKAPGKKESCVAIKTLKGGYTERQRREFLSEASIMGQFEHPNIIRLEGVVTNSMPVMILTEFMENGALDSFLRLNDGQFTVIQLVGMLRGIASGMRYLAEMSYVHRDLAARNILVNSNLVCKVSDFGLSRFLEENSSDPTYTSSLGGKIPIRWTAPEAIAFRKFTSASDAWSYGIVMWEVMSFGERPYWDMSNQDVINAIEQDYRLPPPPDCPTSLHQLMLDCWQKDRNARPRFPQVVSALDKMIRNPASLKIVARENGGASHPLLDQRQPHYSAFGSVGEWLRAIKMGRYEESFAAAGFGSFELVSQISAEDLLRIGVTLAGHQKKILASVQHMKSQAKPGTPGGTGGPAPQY
As to the kind of experiment: Inhibition of EPHB4 (unknown origin) assessed as residual activity at 100 nM by KINOMEscan analysis relative to control.

The target in experiment [8] is T3, Dual specificity mitogen-activated protein kinase kinase 5 (Homo sapiens) (UniProt Q13163).
T3 sequence (whole entry): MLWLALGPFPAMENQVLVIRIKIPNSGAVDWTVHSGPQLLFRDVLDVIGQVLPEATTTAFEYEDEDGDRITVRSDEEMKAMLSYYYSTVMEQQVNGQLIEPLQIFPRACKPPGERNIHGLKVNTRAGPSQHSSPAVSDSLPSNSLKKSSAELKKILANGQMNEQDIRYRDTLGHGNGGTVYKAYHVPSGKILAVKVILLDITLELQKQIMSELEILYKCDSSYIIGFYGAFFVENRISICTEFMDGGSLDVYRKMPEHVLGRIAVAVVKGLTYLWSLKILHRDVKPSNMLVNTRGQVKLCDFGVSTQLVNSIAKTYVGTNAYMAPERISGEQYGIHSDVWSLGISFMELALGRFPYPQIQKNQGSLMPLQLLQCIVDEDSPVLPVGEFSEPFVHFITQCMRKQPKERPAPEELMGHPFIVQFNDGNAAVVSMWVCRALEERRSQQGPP
The experiment in a line: Inhibition of MEK5 (unknown origin) assessed as residual activity at 100 nM by KINOMEscan analysis relative to control.

Chain of SOS1-KRAS (Q07889 whole entry, looked up, stated change not applied, the tested form may be a part): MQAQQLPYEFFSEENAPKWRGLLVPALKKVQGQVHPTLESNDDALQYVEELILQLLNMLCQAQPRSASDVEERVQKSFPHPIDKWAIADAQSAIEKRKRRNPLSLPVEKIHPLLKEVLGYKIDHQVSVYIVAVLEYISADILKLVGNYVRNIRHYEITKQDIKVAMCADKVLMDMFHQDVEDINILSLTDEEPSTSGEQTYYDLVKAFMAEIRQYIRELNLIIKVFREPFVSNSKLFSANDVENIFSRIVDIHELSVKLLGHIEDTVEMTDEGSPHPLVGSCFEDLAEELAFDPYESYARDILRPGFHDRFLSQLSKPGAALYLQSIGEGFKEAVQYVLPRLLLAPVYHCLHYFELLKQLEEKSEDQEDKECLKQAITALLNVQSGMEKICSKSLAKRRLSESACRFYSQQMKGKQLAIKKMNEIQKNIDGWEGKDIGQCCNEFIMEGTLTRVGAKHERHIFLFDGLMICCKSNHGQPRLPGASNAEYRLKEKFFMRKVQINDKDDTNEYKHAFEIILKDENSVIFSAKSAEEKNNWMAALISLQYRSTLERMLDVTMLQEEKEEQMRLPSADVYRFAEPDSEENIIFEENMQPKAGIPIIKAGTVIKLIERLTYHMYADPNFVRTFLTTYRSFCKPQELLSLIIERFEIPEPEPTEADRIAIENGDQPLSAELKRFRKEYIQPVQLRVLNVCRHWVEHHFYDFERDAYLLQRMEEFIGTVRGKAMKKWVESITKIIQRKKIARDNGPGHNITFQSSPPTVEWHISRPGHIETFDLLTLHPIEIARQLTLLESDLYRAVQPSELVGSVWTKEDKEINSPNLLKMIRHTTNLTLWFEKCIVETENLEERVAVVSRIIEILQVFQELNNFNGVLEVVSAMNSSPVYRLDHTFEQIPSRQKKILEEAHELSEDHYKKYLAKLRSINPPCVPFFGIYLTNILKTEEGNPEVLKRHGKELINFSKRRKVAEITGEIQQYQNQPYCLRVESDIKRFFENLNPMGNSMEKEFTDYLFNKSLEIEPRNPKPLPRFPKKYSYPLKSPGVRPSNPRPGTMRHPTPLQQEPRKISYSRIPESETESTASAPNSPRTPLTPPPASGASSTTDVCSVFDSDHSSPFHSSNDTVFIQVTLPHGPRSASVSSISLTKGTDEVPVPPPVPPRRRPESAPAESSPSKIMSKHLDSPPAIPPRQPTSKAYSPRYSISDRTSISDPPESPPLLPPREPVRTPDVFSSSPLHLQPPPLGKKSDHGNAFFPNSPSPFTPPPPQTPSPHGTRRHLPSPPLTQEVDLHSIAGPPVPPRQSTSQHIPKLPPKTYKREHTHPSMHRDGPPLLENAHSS
Chain of Son of sevenless homolog 1 (Q07889 whole entry, looked up, stated change not applied, the tested form may be a part): as above
Chain of Mitogen-activated protein kinase kinase kinase 9 (Homo sapiens) (P80192 whole entry, looked up): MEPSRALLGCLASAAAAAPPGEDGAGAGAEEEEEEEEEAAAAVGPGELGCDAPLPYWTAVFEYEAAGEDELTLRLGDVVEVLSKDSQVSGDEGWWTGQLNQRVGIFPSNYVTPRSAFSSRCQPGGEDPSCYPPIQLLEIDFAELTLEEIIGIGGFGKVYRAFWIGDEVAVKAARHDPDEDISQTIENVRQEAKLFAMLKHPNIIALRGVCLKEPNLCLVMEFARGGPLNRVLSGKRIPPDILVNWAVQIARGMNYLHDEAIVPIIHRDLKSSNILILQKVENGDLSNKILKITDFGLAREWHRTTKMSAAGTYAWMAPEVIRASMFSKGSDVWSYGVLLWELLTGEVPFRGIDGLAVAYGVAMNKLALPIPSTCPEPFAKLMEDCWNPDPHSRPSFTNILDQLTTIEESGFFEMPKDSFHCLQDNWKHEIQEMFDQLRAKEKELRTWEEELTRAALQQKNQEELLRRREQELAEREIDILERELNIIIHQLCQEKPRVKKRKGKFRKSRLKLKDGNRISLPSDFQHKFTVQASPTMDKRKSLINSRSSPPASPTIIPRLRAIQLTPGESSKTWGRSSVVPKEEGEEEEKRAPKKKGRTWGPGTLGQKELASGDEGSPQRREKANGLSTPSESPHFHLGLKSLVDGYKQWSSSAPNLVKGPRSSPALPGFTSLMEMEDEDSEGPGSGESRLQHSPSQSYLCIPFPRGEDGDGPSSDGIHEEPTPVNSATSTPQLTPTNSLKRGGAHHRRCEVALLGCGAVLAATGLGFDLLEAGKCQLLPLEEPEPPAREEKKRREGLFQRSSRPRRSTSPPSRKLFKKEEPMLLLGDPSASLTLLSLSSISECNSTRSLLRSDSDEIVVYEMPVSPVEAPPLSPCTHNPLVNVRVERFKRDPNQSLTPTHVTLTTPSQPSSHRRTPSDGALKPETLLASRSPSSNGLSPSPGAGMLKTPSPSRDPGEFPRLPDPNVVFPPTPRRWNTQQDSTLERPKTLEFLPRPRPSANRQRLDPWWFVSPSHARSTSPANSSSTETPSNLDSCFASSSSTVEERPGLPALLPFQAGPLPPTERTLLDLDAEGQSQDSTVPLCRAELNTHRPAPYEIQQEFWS
Chain of Phosphatidylinositol 4,5-bisphosphate 3-kinase catalytic subunit alpha isoform (Homo sapiens), P42336 [E545K] (P42336 whole entry E545K, canonical isoform): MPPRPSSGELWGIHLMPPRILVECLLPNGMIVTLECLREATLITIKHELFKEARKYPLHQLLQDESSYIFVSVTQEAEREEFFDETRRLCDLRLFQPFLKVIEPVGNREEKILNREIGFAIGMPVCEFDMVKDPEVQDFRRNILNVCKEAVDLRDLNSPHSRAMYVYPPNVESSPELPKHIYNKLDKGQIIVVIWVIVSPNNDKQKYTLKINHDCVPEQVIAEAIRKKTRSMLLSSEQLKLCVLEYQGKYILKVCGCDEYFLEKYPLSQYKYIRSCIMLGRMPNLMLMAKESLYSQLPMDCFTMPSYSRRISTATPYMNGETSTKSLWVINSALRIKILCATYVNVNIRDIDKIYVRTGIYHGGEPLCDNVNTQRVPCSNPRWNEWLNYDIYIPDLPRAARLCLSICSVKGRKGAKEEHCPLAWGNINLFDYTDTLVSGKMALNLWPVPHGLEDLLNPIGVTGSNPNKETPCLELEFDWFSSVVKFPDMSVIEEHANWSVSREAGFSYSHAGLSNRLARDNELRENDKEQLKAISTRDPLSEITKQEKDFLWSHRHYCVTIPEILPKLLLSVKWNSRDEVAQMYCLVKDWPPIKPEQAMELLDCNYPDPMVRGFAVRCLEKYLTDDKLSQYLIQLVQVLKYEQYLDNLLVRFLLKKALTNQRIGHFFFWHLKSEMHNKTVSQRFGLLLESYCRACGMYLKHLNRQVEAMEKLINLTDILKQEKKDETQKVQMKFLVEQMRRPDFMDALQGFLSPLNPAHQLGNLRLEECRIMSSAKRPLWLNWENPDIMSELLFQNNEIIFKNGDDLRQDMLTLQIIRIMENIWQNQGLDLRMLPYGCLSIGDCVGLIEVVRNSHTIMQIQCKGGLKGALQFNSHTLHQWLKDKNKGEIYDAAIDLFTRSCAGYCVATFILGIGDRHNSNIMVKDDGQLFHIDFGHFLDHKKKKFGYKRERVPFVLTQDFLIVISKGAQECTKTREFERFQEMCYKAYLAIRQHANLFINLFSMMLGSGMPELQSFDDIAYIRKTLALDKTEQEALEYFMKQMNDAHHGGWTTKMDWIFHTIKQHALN

One may read the IC50 as the concentration needed to halve the response being measured. Take `COc1cc2nc(C)nc(NC(C)c3ccc(-c4cnc5n4CCC5)s3)c2cc1OC` (stereo not drawn): the 50% inhibitory concentration (IC50) came out at 400 nM in experiment [1] and 650 nM in experiment [2].
`COc1cc2ncnc(N[C@H](C)c3cccc4ccccc34)c2cc1OC`: the Activity in experiment [3] stood at 83%; in experiment [4], 100%; in experiment [5], 100%; in experiment [6], 75%; in experiment [7], 75%; in experiment [8] it was 83%.
